In the supplement of paper PMC9265050, “Inhibition of RNA Binding in SND1 Increases the Levels of miR-1-3p and Sensitizes Cancer Cells to Navitoclax” (Cancers, 2022):

Tested on: SW480
Assay: drug sensitivity score (DSS, integrated dose-response area); higher = more sensitive (stronger viability reduction); extreme values may be limits of the assay
In short: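 The drug sensitivity score is the integrated area under a fitted non-linear dose–response model. It was derived from SW480 cells with doxycycline-inducible control or SND1-targeting shRNA, induced with 0.1 µg/mL doxycycline for 7 days and plated at 1000 cells per well on 384-well plates of 525 commercially available small-molecule inhibitors at five concentrations. CellTiter-Glo measured viability after 72 h.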

[1] = shRNA: SND1 shRNA1 (SND1 silenced)
[2] = shRNA: SND1 shRNA2 (SND1 silenced)
[3] = shRNA: control shRNA (non-targeting)

## CCCNC(=O)Nc1ccc(Oc2ncnc3cc(OC)c(OC)cc23)cc1Cl [KRN-633]
[1]
  drug sensitivity score: 0 DSS
[2]
  drug sensitivity score: 0.4 DSS
[3]
  drug sensitivity score: 0.6 DSS

## O=C(c1ccc(/C=C/c2n[nH]c3ccccc23)cc1)N1CCNCC1 [KW-2449]
[1]
  drug sensitivity score: 0.7 DSS
[2]
  drug sensitivity score: 0 DSS
[3]
  drug sensitivity score: 0.2 DSS

## O=C(Cc1ccc(-c2ccc(OCCN3CCOCC3)cc2)cn1)NCc1ccccc1 [KX2-391]
[1]
  drug sensitivity score: 15 DSS
[2]
  drug sensitivity score: 17.4 DSS
[3]
  drug sensitivity score: 18.9 DSS

## CN[C@@H](C)C(=O)N[C@H](C(=O)N1CCC[C@H]1c1nc(C(=O)c2ccc(F)cc2)cs1)C1CCCCC1 [LCL161]
[1]
  drug sensitivity score: 0.2 DSS
[2]
  drug sensitivity score: 0 DSS
[3]
  drug sensitivity score: 0.5 DSS

## CS(=O)(=O)CCNCc1ccc(-c2ccc3ncnc(Nc4ccc(OCc5cccc(F)c5)c(Cl)c4)c3c2)o1 [Lapatinib]
[1]
  drug sensitivity score: 0 DSS
[2]
  drug sensitivity score: 0 DSS
[3]
  drug sensitivity score: 0.9 DSS

## Oc1ccc2c(c1)CC[C@H](c1ccccc1)[C@@H]2c1ccc(OCCN2CCCC2)cc1 [Lasofoxifene]
[1]
  drug sensitivity score: 0.8 DSS
[2]
  drug sensitivity score: 0.7 DSS
[3]
  drug sensitivity score: 2 DSS

## Nc1cccc2c1CN(C1CCC(=O)NC1=O)C2=O (stereo unspecified) [Lenalidomide]
[1]
  drug sensitivity score: 0 DSS
[2]
  drug sensitivity score: 0.1 DSS
[3]
  drug sensitivity score: 2.3 DSS

## COc1cc2nccc(Oc3ccc(NC(=O)NC4CC4)c(Cl)c3)c2cc1C(N)=O [Lenvatinib]
[1]
  drug sensitivity score: 1.8 DSS
[2]
  drug sensitivity score: 1.3 DSS
[3]
  drug sensitivity score: 2.1 DSS

## C[C@]12O[C@H](C[C@]1(O)CO)n1c3ccccc3c3c4c(c5c6ccccc6n2c5c31)CNC4=O [Lestaurtinib]
[1]
  drug sensitivity score: 6.8 DSS
[2]
  drug sensitivity score: 7.1 DSS
[3]
  drug sensitivity score: 8.3 DSS

## N#Cc1ccc(C(c2ccc(C#N)cc2)n2cncn2)cc1 [Letrozole]
[1]
  drug sensitivity score: 0 DSS
[2]
  drug sensitivity score: 0 DSS
[3]
  drug sensitivity score: 0.1 DSS

## c1ccc([C@H]2CN3CCSC3=N2)cc1 [Levamisole]
[1]
  drug sensitivity score: 0 DSS
[2]
  drug sensitivity score: 0 DSS
[3]
  drug sensitivity score: 0 DSS

## Cc1ccc(F)c(NC(=O)Nc2ccc(-c3cccc4[nH]nc(N)c34)cc2)c1 [Linifanib]
[1]
  drug sensitivity score: 0 DSS
[2]
  drug sensitivity score: 0 DSS
[3]
  drug sensitivity score: 0 DSS

## C[C@]1(O)C[C@@H](c2nc(-c3ccc4ccc(-c5ccccc5)nc4c3)c3c(N)nccn32)C1 [Linsitinib]
[1]
  drug sensitivity score: 0 DSS
[2]
  drug sensitivity score: 0.1 DSS
[3]
  drug sensitivity score: 0.2 DSS

## Nc1nc(OCc2cc(Br)cs2)c2[nH]cnc2n1 [Lomeguatrib]
[1]
  drug sensitivity score: 0 DSS
[2]
  drug sensitivity score: 1.9 DSS
[3]
  drug sensitivity score: 0.5 DSS

## O=NN(CCCl)C(=O)NC1CCCCC1 [Lomustine]
[1]
  drug sensitivity score: 0 DSS
[2]
  drug sensitivity score: 0 DSS
[3]
  drug sensitivity score: 0 DSS

## NC(=O)N1CCC(CC(=O)N2CCC([C@H]3c4ncc(Br)cc4CCc4cc(Cl)cc(Br)c43)CC2)CC1 [Lonafarnib]
[1]
  drug sensitivity score: 6.9 DSS
[2]
  drug sensitivity score: 8.8 DSS
[3]
  drug sensitivity score: 4.9 DSS

## Cc1c(F)cc(C(=O)NC2CC2)cc1-c1ccc(C(=O)NCC(C)(C)C)cn1 [Losmapimod]
[1]
  drug sensitivity score: 0 DSS
[2]
  drug sensitivity score: 0 DSS
[3]
  drug sensitivity score: 0 DSS

## CC[C@H](C)C(=O)O[C@H]1C[C@@H](C)C=C2C=C[C@H](C)[C@H](CC[C@@H]3C[C@@H](O)CC(=O)O3)[C@H]21 [Lovastatin]
[1]
  drug sensitivity score: 0 DSS
[3]
  drug sensitivity score: 0 DSS

## CNC(=O)c1cccc2cc(Oc3ccnc4cc(OCC5(N)CC5)c(OC)cc34)ccc12 [Lucitanib]
[1]
  drug sensitivity score: 2.3 DSS
[2]
  drug sensitivity score: 0.6 DSS
[3]
  drug sensitivity score: 3 DSS

## CCNC(=O)c1noc(-c2cc(C(C)C)c(O)cc2O)c1-c1ccc(CN2CCOCC2)cc1 [Luminespib]
[1]
  drug sensitivity score: 15.3 DSS
[2]
  drug sensitivity score: 15.4 DSS
[3]
  drug sensitivity score: 15.7 DSS

## C=CCn1c(=O)c2cnc(Nc3ccc(N4CCN(C)CC4)cc3)nc2n1-c1cccc(C(C)(C)O)n1 [MK1775]
[1]
  drug sensitivity score: 13.5 DSS
[2]
  drug sensitivity score: 11.5 DSS
[3]
  drug sensitivity score: 11.9 DSS

## O=C(O)CC[C@H]1CC[C@@](c2cc(F)ccc2F)(S(=O)(=O)c2ccc(Cl)cc2)CC1 [MK-0752]
[1]
  drug sensitivity score: 0.7 DSS
[2]
  drug sensitivity score: 0 DSS
[3]
  drug sensitivity score: 0 DSS

## NC1(c2ccc(-c3nc4ccn5c(=O)[nH]nc5c4cc3-c3ccccc3)cc2)CCC1 [MK-2206]
[1]
  drug sensitivity score: 3.5 DSS
[2]
  drug sensitivity score: 4.4 DSS
[3]
  drug sensitivity score: 3.6 DSS

## CN(C[C@@H]1COCCO1)S(=O)(=O)Nc1ccc2ccc3ncc(-c4cnn(C)c4)cc3c(=O)c2c1 [MK-2461]
[1]
  drug sensitivity score: 0.6 DSS
[2]
  drug sensitivity score: 0 DSS
[3]
  drug sensitivity score: 0.3 DSS

## O=C(c1cccc(Cl)c1F)N1CCN(Cc2cccc(Nc3nccs3)n2)CC1 [MK-8745]
[1]
  drug sensitivity score: 1.7 DSS
[3]
  drug sensitivity score: 1.9 DSS

## Cn1cc(-c2cnn3c(N)c(Br)c([C@@H]4CCCNC4)nc23)cn1 [MK-8776]
[1]
  drug sensitivity score: 0.9 DSS
[2]
  drug sensitivity score: 0.1 DSS
[3]
  drug sensitivity score: 2.2 DSS

## Cc1cnc(-c2ccccc2C(C)C)nc1NCc1ccc(-n2ccnn2)cc1 [ML323]
[1]
  drug sensitivity score: 0 DSS
[2]
  drug sensitivity score: 1.4 DSS
[3]
  drug sensitivity score: 4.4 DSS

## CC(C)n1nc(-c2ccc3oc(N)nc3c2)c2c(N)ncnc21 [MLN-0128]
[1]
  drug sensitivity score: 14 DSS
[2]
  drug sensitivity score: 12.3 DSS
[3]
  drug sensitivity score: 9.8 DSS

## O=C(O)c1ccc(Nc2ncc3c(n2)-c2ccc(Cl)cc2C(c2c(F)cccc2F)=NC3)cc1 [MLN-8054]
[1]
  drug sensitivity score: 6.3 DSS
[3]
  drug sensitivity score: 6.5 DSS

## O=C(Nc1cccc(NC(=O)c2cccc(O)c2O)c1)c1cccc(O)c1O [MST-312]
[1]
  drug sensitivity score: 7.6 DSS
[2]
  drug sensitivity score: 5.2 DSS
[3]
  drug sensitivity score: 8.2 DSS

## CNC(=O)[C@@H](NC(=O)[C@H](CC(C)C)[C@H](O)C(=O)NO)C(C)(C)C [Marimastat]
[1]
  drug sensitivity score: 0 DSS
[2]
  drug sensitivity score: 0 DSS
[3]
  drug sensitivity score: 0 DSS

## Cc1ccc(NC(=O)c2ccc(CN3CCN(C)CC3)cc2)cc1Nc1nc(-c2cccnc2)cs1 [Masitinib]
[1]
  drug sensitivity score: 3.1 DSS
[2]
  drug sensitivity score: 3.4 DSS
[3]
  drug sensitivity score: 4.6 DSS

## CC(=O)O[C@]1(C(C)=O)CC[C@H]2[C@@H]3C=C(C)C4=CC(=O)CC[C@]4(C)[C@H]3CC[C@@]21C [Megestrol acetate]
[1]
  drug sensitivity score: 0 DSS
[2]
  drug sensitivity score: 0 DSS
[3]
  drug sensitivity score: 0 DSS

## N[C@@H](Cc1ccc(N(CCCl)CCCl)cc1)C(=O)O [Melphalan]
[1]
  drug sensitivity score: 0 DSS
[3]
  drug sensitivity score: 0 DSS

## CCN(CC)CCCC(C)Nc1c2ccc(Cl)cc2nc2ccc(OC)cc12 (stereo unspecified) [Mepacrine]
[1]
  drug sensitivity score: 21.5 DSS
[3]
  drug sensitivity score: 21.5 DSS

## S=c1[nH]cnc2nc[nH]c12 [Mercaptopurine]
[1]
  drug sensitivity score: 9.7 DSS
[2]
  drug sensitivity score: 5.3 DSS
[3]
  drug sensitivity score: 6.3 DSS

## Cc1ccc(C(=O)Nc2ccc(Oc3cc4cnn(C)c4cc3-c3cn[nH]c3)c(F)c2)c(=O)n1-c1ccc(F)cc1 [Merestinib]
[1]
  drug sensitivity score: 4.5 DSS
[2]
  drug sensitivity score: 5.4 DSS
[3]
  drug sensitivity score: 4.3 DSS

## CN(C)C(=N)NC(=N)N [Metformin]
[1]
  drug sensitivity score: 0 DSS
[3]
  drug sensitivity score: 1 DSS

## CN(Cc1cnc2nc(N)nc(N)c2n1)c1ccc(C(=O)N[C@@H](CCC(=O)O)C(=O)O)cc1 [Methotrexate]
[1]
  drug sensitivity score: 11.7 DSS
[3]
  drug sensitivity score: 7.4 DSS

## C[C@H]1C[C@@H]2[C@H]([C@@H](O)C[C@@]3(C)[C@H]2CC[C@]3(O)C(=O)CO)[C@@]2(C)C=CC(=O)C=C12 [Methylprednisolone]
[1]
  drug sensitivity score: 0 DSS
[2]
  drug sensitivity score: 1.4 DSS
[3]
  drug sensitivity score: 0 DSS

## CO[C@@H]1[C@H](N(C)C(=O)c2ccccc2)C[C@H]2O[C@]1(C)n1c3ccccc3c3c4c(c5c6ccccc6n2c5c31)C(=O)NC4 [Midostaurin]
[1]
  drug sensitivity score: 14.3 DSS
[2]
  drug sensitivity score: 14.7 DSS
[3]
  drug sensitivity score: 14.5 DSS

## CNC(=O)c1nn(C)c2c1C(C)(C)Cc1cnc(Nc3ccc(N4CCN(C)CC4)cc3)nc1-2 [Milciclib]
[1]
  drug sensitivity score: 11.4 DSS
[2]
  drug sensitivity score: 10.9 DSS
[3]
  drug sensitivity score: 9.2 DSS

## CO[C@@]12[C@H](COC(N)=O)C3=C(C(=O)C(C)=C(N)C3=O)N1C[C@@H]1N[C@@H]12 [Mitomycin C]
[1]
  drug sensitivity score: 2.7 DSS
[2]
  drug sensitivity score: 2.1 DSS
[3]
  drug sensitivity score: 1 DSS

## Clc1ccc(C(c2ccccc2Cl)C(Cl)Cl)cc1 (stereo unspecified) [Mitotane]
[1]
  drug sensitivity score: 0 DSS
[2]
  drug sensitivity score: 0 DSS
[3]
  drug sensitivity score: 0 DSS

## O=C1c2c(O)ccc(O)c2C(=O)c2c(NCCNCCO)ccc(NCCNCCO)c21 [Mitoxantrone]
[1]
  drug sensitivity score: 1.9 DSS
[2]
  drug sensitivity score: 0.3 DSS
[3]
  drug sensitivity score: 0.8 DSS

## Nc1ccccc1NC(=O)c1ccc(CNc2nccc(-c3cccnc3)n2)cc1 [Mocetinostat]
[1]
  drug sensitivity score: 10.2 DSS
[2]
  drug sensitivity score: 6.1 DSS
[3]
  drug sensitivity score: 7.8 DSS

## N#CCNC(=O)c1ccc(-c2ccnc(Nc3ccc(N4CCOCC4)cc3)n2)cc1 [Momelotinib]
[1]
  drug sensitivity score: 3.8 DSS
[2]
  drug sensitivity score: 2.1 DSS
[3]
  drug sensitivity score: 1.9 DSS

## CC1(C)CNc2cc(NC(=O)c3cccnc3NCc3ccncc3)ccc21 [Motesanib]
[1]
  drug sensitivity score: 0 DSS
[2]
  drug sensitivity score: 0.4 DSS
[3]
  drug sensitivity score: 0 DSS

## FC(F)(F)c1ccc(/C=C/c2nc(COc3ccc(CCCCn4ccnn4)cc3)co2)cc1 [Mubritinib]
[1]
  drug sensitivity score: 3.8 DSS
[2]
  drug sensitivity score: 9.3 DSS
[3]
  drug sensitivity score: 5.5 DSS

## Cc1cc(OCc2nnc(SC3CCCC3)n2-c2cccnc2)ccc1-c1ccc(S(C)(=O)=O)cc1 [NMS-873]
[1]
  drug sensitivity score: 9.5 DSS
[2]
  drug sensitivity score: 10.5 DSS
[3]
  drug sensitivity score: 9 DSS

## CCN1CCN(Cc2ccc(-c3cc4c(N[C@H](C)c5ccccc5)ncnc4[nH]3)cc2)CC1 [NVP-AEE788]
[1]
  drug sensitivity score: 1.5 DSS
[2]
  drug sensitivity score: 1.3 DSS
[3]
  drug sensitivity score: 2.8 DSS
